# Results from patent publication US8044211B2 (Chroma Therapeutics Ltd., priority 2006, dated 2011).
# Target: T1, p38 MAP Kinase a (Homo sapiens, UniProt Q16539)
# T1 construct: purchased Upstate (Dundee UK)
# Assay: p38 MAP Kinase activity, radiometric filter-binding assay (Upstate)
# Format: biochemical
# Conditions: IC50 range; ATP at or close to Km; read-out: Inhibitor activity versus p38 MAPKa
# Protocol: The ability of compounds to inhibit p38 MAP a Kinase activity was measured in an assay performed by Upstate (Dundee UK). In a final reaction volume of 25 μL, p38 MAP Kinase a (5-10 mU) is incubated with 25 mM Tris pH 7.5, 0.002 mMEGTA, 0.33 mg/mL myelin basic protein, 10 mM MgAcetate and [g-33P-ATP] (specific activity approx. 500 cpm/pmol, concentration as required). The reaction is initiated by the addition of the MgATP mix. After incubation for 40 minutes at room temperature, the reaction is stopped by the addition of 5 μL of a 3% phosphoric acid solution. 10 μL of the reaction is then spotted onto a P30 filtermat and washed three times for 5 minutes in 75 mM phosphoric acid and once in methanol prior to drying and scintillation counting.
# Duplicate data points are generated from a ⅓ log dilution series of a stock solution in DMSO. Nine dilutions steps are made from a top concentration of 10 μM, and a ‘no compound’ blank is included. The standard radiometric filter-binding assay is performed at an ATP concentration at, or close to, the Km. Data from scintillation counts are collected and subjected to free-fit analysis by Prism software. From the curve generated, the concentration giving 50% inhibition is determined and reported.
# T1 sequence (Q16539 whole entry): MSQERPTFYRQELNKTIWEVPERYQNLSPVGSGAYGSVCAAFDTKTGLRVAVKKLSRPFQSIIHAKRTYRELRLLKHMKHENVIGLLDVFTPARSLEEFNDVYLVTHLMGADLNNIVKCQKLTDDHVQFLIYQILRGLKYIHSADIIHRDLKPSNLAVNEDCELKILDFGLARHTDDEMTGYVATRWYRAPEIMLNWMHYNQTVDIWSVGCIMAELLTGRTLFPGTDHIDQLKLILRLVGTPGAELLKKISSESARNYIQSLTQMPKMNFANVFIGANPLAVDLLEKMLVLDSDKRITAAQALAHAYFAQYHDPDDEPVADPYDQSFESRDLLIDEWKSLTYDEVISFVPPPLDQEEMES
row,Structure (SMILES),IC50 [nM]
1,"Cc1cc(C(=O)c2ccc(=O)n(-c3ccc(CN[C@H](C(=O)O)c4ccccc4)cc3)c2N)ccc1F [Example 76, (S)-{4-[6-Amino-5-(3-methyl-4-fluorobenzoyl)-2-oxo-2H-pyridin-1-yl]benzylamino}phenylacetic acid]",100 to 1000
2,"Nc1c(C(=O)c2ccc(F)cc2F)ccc(=O)n1-c1c(F)cc(OCCCN[C@@H](C(=O)O)c2ccccc2)cc1F [Example 106, (R)-(3-{4-[6-Amino-5-(2,4-difluorobenzoyl)-2-oxo-2H-pyridin-1-yl]-3,5-difluorophenoxy}propylamino)phenyl acetic acid]",< 100
3,"CC(C)C[C@H](NCCc1ccc(-n2c(N)c(C(=O)c3ccc(F)cc3)ccc2=O)cc1)C(=O)O [Example 111, N-[2-(4-{6-amino-5-[(4-fluorophenyl)carbonyl]-2-oxopyridin-1 (2H)-yl}phenyl)ethyl]-L-leucine]",100 to 1000
4,"CC(C)C[C@H](NCCCCCOc1cc(F)c(-n2c(N)c(C(=O)c3ccc(F)cc3)ccc2=O)c(F)c1)C(=O)O [Example 109, N-(5-{4-[6-amino-5-(4-fluorobenzoyl)-2-oxopyridin-1(2H)-yl]-3,5-difluorophenoxy}pentyl)-L-leucine]",< 100
5,"Nc1c(C(=O)c2ccc(F)cc2F)ccc(=O)n1-c1c(F)cc(OCCCN[C@H](C(=O)O)C2CCCCC2)cc1F [Example 107, (2S)-[(3-{4-[6-amino-5-(2,4-difluorobenzoyl)-2-oxopyridin-1(2H)-yl]-3,5-difluorophenoxy}propyl)amino](cyclohexyl)acetic acid]",< 100
6,"Cc1cc(C(=O)c2ccc(=O)n(-c3ccc(CN[C@@H](Cc4ccccc4)C(=O)O)cc3)c2N)ccc1F [Example 80, (S)-2-{4-[6-Amino-5-(3-methyl-4-fluorobenzoyl)-2-oxo-2H-pyridin-1-yl]benzylamino}-3-phenylpropionic acid]",< 100
7,"Cc1cc(C(=O)c2ccc(=O)n(-c3c(F)cc(OCCCN[C@@H](CC(C)C)C(=O)O)cc3F)c2N)ccc1F [Example 98, (S)-2-(3-{4-[6-Amino-5-(4-fluoro-3-methylbenzoyl)-2-oxo-2H-pyridin-1-yl]-3,5-difluorophenoxy}propylamino)-4-methylpentanoic acid]",< 100
8,"Cc1cc(C(=O)c2ccc(=O)n(-c3c(F)cc(OCCCN[C@@H](Cc4ccccc4)C(=O)O)cc3F)c2N)ccc1F [Example 93, (S)-2-(3-{4-[6-Amino-5-(4-fluoro-3-methylbenzoyl)-2-oxo-2H-pyridin-1-yl]-3,5-difluorophenoxy}propylamino)-3-phenylpropionic acid]",< 100
9,Nc1c(C(=O)c2ccc(F)cc2)ccc(=O)n1-c1c(F)cc(OC2CCC(N[C@@H](Cc3ccccc3)C(=O)O)CC2)cc1F (stereo partly shown) [Example 102],< 100
10,"CC(C)C[C@H](NCCCCCOc1cc(F)c(-n2c(N)c(C(=O)c3ccc(F)cc3F)ccc2=O)c(F)c1)C(=O)O [Example 116, N-(5-{4-[6-amino-5-(2,4-difluorobenzoyl)-2-oxopyridin-1(2H)-yl]-3,5-difluorophenoxy}pentyl)-L-leucine]",< 100
11,"Nc1c(C(=O)c2ccc(F)cc2)ccc(=O)n1-c1ccc(OCCCN[C@H](C(=O)O)c2ccccc2)cc1 [Example 94, (S)-(3-{4-[6-Amino-5-(4-fluorobenzoyl)-2-oxo-2H-pyridin-1-yl]-Phenoxy}propylamino)phenylacetic acid]",< 100
12,Nc1c(C(=O)c2ccc(F)cc2)ccc(=O)n1-c1ccc(OCCCN[C@@H](Cc2ccccc2)C(=O)O)cc1 [Example 82],< 100
13,"Nc1c(C(=O)c2ccc(F)cc2)ccc(=O)n1-c1ccc(CN[C@@H](Cc2ccccc2)C(=O)O)cc1 [Example 78, (S)-2-{4-[6-Amino-5-(4-fluorobenzoyl)-2-oxo-2H-pyridin-1-yl]benzylamino}-3-phenylpropionic acid]",100 to 1000
14,"Nc1c(C(=O)c2ccc(F)cc2)ccc(=O)n1C1CCC(N[C@@H](Cc2ccccc2)C(=O)O)CC1 (stereo partly drawn) [Example 105, (S)-2-{4-[6-Amino-5-(4-fluorobenzoyl)-2-oxo-2H-pyridin-1-yl]cyclohexylamino}-3-phenylpropionic acid]",100 to 1000
15,"Cc1cc(C(=O)c2ccc(=O)n(-c3ccc(OCCCN[C@@H](Cc4ccccc4)C(=O)O)cc3)c2N)ccc1F [Example 83, (S)-2-(3-{4-[6-Amino-5-(3-methyl-4-fluorobenzoyl)-2-oxo-2H-pyridin-1-yl]phenoxy}propylamino)-3-phenyl propionic acid]",< 100
16,"CC(C)C[C@H](NC1CCC(Oc2cc(F)c(-n3c(N)c(C(=O)c4ccc(F)cc4)ccc3=O)c(F)c2)CC1)C(=O)O (stereo partly drawn) [Example 104, N-(4-{4-[6-amino-5-(4-fluorobenzoyl)-2-oxopyridin-1(2H)-yl]-3,5-difluorophenoxy}cyclohexyl)-L-leucine]",< 100

row,Structure (SMILES),IC50 [nM]
1,"Nc1c(C(=O)c2ccc(F)cc2F)ccc(=O)n1-c1c(F)cc(OCCCN[C@H](C(=O)O)c2ccccc2)cc1F [Example 95, (S)-(3-{4-[6-Amino-5-(2,4-difluorobenzoyl)-2-oxo-2H-pyridin-1-yl]-3,5-difluorophenoxy}propylamino)phenyl acetic acid]",< 100
2,"CC(C)C[C@H](NCc1ccc(-n2c(N)c(C(=O)c3ccc(F)cc3F)ccc2=O)cc1)C(=O)O [Example 74, (S)-2-{4-[6-Amino-5-(2,4-difluorobenzoyl)-2-oxo-2H-pyridin-1-yl]benzylamino}-4-methylpentanoic acid]",< 100
3,Nc1c(C(=O)c2ccc(F)cc2)ccc(=O)n1-c1c(F)cc(OCCCN[C@H](C(=O)O)c2ccccc2)cc1F [Example 89],< 100
4,"Nc1c(C(=O)c2ccc(F)cc2F)ccc(=O)n1-c1ccc(CN[C@H](C(=O)O)c2ccccc2)cc1 [Example 72, (S)-{4-[6-Amino-5-(2,4-difluorobenzoyl)-2-oxo-2H-pyridin-1-yl]benzylamino}phenylacetic acid]",< 100
5,"CC(C)C[C@@H](NCCCOc1cc(F)c(-n2c(N)c(C(=O)c3ccc(F)cc3F)ccc2=O)c(F)c1)C(=O)O [Example 108, N-(3-{4-[6-amino-5-(2,4-difluorobenzoyl)-2-oxopyridin-1(2H)-yl]-3,5-difluorophenoxy}propyl)-D-leucine]",< 100
6,"Nc1c(C(=O)c2ccc(F)cc2F)ccc(=O)n1-c1ccc(OCCCN[C@@H](Cc2ccccc2)C(=O)O)cc1 [Example 86, (S)-2-(3-{4-[6-Amino-5-(2,4-difluorobenzoyl)-2-oxo-2H-pyridin-1-yl]phenoxy}propylamino)-3-phenyl propionic acid]",> 1000
7,"CC(C)C[C@H](NCCc1ccc(-n2c(N)c(C(=O)c3ccc(F)cc3F)ccc2=O)cc1)C(=O)O [Example 117, N-[2-(4-{6-amino-5-[(2,4-difluorophenyl)carbonyl]-2-oxopyridin-1(2H)-yl}phenyl)ethyl]-L-leucine]",< 100
8,"Nc1c(C(=O)c2ccc(F)cc2F)ccc(=O)n1-c1ccc(OCCCN[C@H](C(=O)O)c2ccccc2)cc1 [Example 84, (S)-(3-{4-[6-Amino-5-(2,4-difluorobenzoyl)-2-oxo-2H-pyridin-1-yl]-phenoxy}propylamino)phenyl acetic acid]",< 100
9,"Cc1cc(C(=O)c2ccc(=O)n(-c3ccc(OCCCN[C@@H](CC(C)C)C(=O)O)cc3)c2N)ccc1F [Example 88, (S)-2-(3-{4-[6-Amino-5-(4-fluoro-3-methylbenzoyl)-2-oxo-2H-pyridin-1-yl]phenoxy}propylamino)-4-methylpentanoic acid]",< 100
10,"Nc1c(C(=O)c2ccc(F)cc2F)ccc(=O)n1-c1ccc(CN[C@@H](Cc2ccccc2)C(=O)O)cc1 [Example 73, (S)-2-{4-[6-Amino-5-(2,4-difluorobenzoyl)-2-oxo-2H-pyridin-1-yl]benzylamino}-3-phenylpropionic acid]",< 100
11,Nc1c(C(=O)c2ccc(F)cc2)ccc(=O)n1-c1c(F)cc(CN[C@@H](Cc2ccccc2)C(=O)O)cc1F [Example 92],< 100
12,"Cc1cc(C(=O)c2ccc(=O)n(-c3c(F)cc(OCCCN[C@H](C(=O)O)c4ccccc4)cc3F)c2N)ccc1F [Example 99, (S)-(3-{4-[6-Amino-5-(4-fluoro-3-methylbenzoyl)-2-oxo-2H-pyridin-1-yl]-3,5-difluorophenoxy}propylamino)phenylacetic acid]",< 100
13,"Nc1c(C(=O)c2ccc(F)cc2F)ccc(=O)n1-c1c(F)cc(OCCCN[C@@H](Cc2ccccc2)C(=O)O)cc1F [Example 100, (S)-2-(3-{4-[6-Amino-5-(2,4-difluorobenzoyl)-2-oxo-2H-pyridin-1-yl]-3,5-difluorophenoxy}-propylamino)-3-phenyl propionic acid]",< 100
14,"Cc1cc(C(=O)c2ccc(=O)n(-c3ccc(CN[C@@H](CC(C)C)C(=O)O)cc3)c2N)ccc1F [Example 81, (S)-2-{4-[6-Amino-5-(3-Methyl-4-fluorobenzoyl)-2-oxo-2H-pyridin-1-yl]benzylamino}-4-methylpentanoic acid]",100 to 1000
15,"Nc1c(C(=O)c2ccc(F)cc2)ccc(=O)n1-c1c(F)cc(OC2CCC(N[C@H](C(=O)O)c3ccccc3)CC2)cc1F (stereo partly drawn) [Example 103, (2S)-[(4-{4-[6-amino-5-(4-fluorobenzoyl)-2-oxopyridin-1(2H)-yl]-3,5-difluorophenoxy}cyclohexyl)amino](phenyl)acetic acid]",< 100
